Literature values as cited in publication PMC9516332 (Frontiers in Oncology, 2022).
Where two headings read alike, the source gives them in different places.

What was measured:
Conditions in all cases: cited from earlier work
[1] = molecular target: T1, panel of 255 wild-type kinases (Homo sapiens, UniProt O00418)
T1 sequence (O00418 1-725): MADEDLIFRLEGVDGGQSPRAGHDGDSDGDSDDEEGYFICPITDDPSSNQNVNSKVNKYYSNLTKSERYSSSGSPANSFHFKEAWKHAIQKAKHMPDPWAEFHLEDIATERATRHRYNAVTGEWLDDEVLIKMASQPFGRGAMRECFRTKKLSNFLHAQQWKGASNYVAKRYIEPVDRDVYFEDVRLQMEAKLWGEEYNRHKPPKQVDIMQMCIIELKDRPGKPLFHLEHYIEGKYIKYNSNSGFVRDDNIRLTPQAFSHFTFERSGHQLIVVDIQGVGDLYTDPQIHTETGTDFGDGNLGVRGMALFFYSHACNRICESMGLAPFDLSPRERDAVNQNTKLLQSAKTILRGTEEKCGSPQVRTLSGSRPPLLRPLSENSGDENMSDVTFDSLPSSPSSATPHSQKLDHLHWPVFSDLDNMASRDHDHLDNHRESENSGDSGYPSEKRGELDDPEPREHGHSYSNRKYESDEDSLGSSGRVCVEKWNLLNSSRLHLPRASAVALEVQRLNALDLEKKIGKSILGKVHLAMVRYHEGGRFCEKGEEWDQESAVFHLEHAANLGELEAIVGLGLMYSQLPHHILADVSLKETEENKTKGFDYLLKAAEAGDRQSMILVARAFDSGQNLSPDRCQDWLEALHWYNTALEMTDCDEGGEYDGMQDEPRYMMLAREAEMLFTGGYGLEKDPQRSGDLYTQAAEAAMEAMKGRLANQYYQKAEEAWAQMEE

[2] = molecular target: panel of 255 wild-type kinases (Homo sapiens, UniProt P08581)
[3] = molecular target: panel of 255 wild-type kinases (Homo sapiens, UniProt Q08345)
[4] = molecular target: T2, panel of 255 wild-type kinases (Homo sapiens, UniProt Q12866)
T2 sequence (Q12866 21-999): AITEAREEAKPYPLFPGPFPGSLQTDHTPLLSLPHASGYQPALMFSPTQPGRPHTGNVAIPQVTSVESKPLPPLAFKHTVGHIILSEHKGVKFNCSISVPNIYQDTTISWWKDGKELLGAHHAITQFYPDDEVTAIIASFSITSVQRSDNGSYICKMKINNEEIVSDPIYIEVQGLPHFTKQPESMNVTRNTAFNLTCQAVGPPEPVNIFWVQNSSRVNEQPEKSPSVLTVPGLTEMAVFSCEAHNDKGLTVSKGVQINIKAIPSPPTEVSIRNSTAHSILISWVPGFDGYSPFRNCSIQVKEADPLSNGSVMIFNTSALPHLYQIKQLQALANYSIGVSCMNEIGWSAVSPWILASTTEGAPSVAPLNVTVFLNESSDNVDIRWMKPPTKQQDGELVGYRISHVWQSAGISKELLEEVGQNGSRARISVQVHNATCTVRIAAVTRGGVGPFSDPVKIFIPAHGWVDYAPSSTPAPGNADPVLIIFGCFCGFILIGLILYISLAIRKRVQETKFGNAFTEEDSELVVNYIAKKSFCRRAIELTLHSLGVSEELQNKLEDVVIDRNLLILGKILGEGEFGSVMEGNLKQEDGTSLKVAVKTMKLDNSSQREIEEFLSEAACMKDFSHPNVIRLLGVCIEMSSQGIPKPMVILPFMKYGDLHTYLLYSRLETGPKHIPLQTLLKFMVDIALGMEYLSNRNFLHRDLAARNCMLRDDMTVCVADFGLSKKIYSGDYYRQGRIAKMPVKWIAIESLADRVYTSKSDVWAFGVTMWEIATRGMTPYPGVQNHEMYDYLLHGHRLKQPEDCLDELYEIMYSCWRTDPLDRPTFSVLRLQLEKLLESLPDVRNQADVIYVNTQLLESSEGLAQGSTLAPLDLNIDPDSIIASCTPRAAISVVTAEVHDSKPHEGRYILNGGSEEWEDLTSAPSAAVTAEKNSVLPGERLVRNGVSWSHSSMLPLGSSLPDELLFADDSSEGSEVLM

[5] = molecular target: T3, panel of 255 wild-type kinases (Homo sapiens, UniProt Q15139)
T3 sequence (Q15139 1-912): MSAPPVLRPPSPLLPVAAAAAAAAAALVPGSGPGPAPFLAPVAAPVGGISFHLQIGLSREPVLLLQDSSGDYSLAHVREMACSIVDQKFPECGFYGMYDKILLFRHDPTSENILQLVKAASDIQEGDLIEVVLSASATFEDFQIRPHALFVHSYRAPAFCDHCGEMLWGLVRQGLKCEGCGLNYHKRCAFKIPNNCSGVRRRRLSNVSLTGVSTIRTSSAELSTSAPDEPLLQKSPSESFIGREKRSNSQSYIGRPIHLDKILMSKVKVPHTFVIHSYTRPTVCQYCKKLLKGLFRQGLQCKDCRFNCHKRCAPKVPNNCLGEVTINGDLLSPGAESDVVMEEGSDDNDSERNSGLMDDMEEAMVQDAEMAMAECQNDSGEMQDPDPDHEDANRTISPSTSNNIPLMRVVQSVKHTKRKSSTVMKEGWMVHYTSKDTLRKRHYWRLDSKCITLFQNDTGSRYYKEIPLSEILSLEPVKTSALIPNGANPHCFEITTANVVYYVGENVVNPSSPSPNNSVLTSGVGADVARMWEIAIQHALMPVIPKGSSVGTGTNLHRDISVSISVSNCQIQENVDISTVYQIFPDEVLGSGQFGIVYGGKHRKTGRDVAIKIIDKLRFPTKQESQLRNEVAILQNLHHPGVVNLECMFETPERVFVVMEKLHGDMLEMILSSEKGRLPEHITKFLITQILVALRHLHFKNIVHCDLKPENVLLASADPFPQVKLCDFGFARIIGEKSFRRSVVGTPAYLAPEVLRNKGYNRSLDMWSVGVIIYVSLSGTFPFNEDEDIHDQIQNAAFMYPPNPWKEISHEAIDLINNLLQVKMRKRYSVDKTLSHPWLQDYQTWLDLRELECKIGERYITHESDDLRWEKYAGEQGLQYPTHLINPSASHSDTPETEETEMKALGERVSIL

[6] = kinase EEF2K, 1 µmol/L single concentration, ref DOI: 10.1158/1535-7163.MCT-18-0877
[7] = MET, 1 µmol/L single concentration, ref DOI: 10.1158/1535-7163.MCT-18-0877
[8] = kinase DDR1, 1 µmol/L single concentration, ref DOI: 10.1158/1535-7163.MCT-18-0877
[9] = MER, 1 µmol/L single concentration, ref DOI: 10.1158/1535-7163.MCT-18-0877
[10] = kinase PKD1, 1 µmol/L single concentration, ref DOI: 10.1158/1535-7163.MCT-18-0877
[11] = kinase EEF2K, 1 µmol/L single concentration, ref DOI: 10.1371/journal.pone.0092146
[12] = kinase DDR1, 1 µmol/L single concentration, ref DOI: 10.1371/journal.pone.0092146
[13] = MET, 1 µmol/L single concentration, ref DOI: 10.1371/journal.pone.0092146
[14] = MER, 1 µmol/L single concentration, ref DOI: 10.1371/journal.pone.0092146
[15] = kinase PKD1, 1 µmol/L single concentration, ref DOI: 10.1371/journal.pone.0092146

| Structure (SMILES) | %-inhibition at 1 µmol/L, EEF2K [1, 6] [%] | %-inhibition, MET [2, 7] [%] | %-inhibition at 1 µmol/L, DDR1 [3, 8] [%] | %-inhibition, MER [4, 9] [%] | %-inhibition at 1 µmol/L, PKD1 [5, 10] [%] | further results |
| --- | --- | --- | --- | --- | --- | --- |
| O=C(c1ccc(F)c(F)c1Nc1ccc(I)cc1F)N1CC(O)([C@@H]2CCCCN2)C1 [cobimetinib] | -0.685 | 7 | 6.37 | 1.18 | -5 | – |
| CO[C@@H]1[C@H](N(C)C(=O)c2ccccc2)C[C@H]2O[C@]1(C)n1c3ccccc3c3c4c(c5c6ccccc6n2c5c31)C(=O)NC4 [midostaurin] | -9 | 45 | 98 | 85 | – | – |
| C=CC(=O)N1CCC[C@@H](n2nc(-c3ccc(Oc4ccccc4)cc3)c3c(N)ncnc32)C1 [ibrutinib] | 1.15 | 12 | 37 | 0.565 | 3.22 | – |
| C[C@@H](Oc1cc(-c2cnn(C3CCNCC3)c2)cnc1N)c1c(Cl)ccc(F)c1Cl [crizotinib] | – | – | – | – | – | %-inhibition at 1 µmol/L, EEF2K [1, 11]: -4.6%; %-inhibition at 1 µmol/L, DDR1 [3, 12]: 97% |
| Cc1cc(Nc2ncc(Cl)c(Nc3ccccc3S(=O)(=O)C(C)C)n2)c(OC(C)C)cc1C1CCNCC1 [ceritinib] | 11 | 16 | 50 | 51 | 27 | – |
| CC(C)(C)c1nc(-c2cccc(NS(=O)(=O)c3c(F)cccc3F)c2F)c(-c2ccnc(N)n2)s1 [dabrafenib] | – | – | – | – | – | %-inhibition, MET [2, 13]: 27%; %-inhibition at 1 µmol/L, DDR1 [3, 12]: 96%; %-inhibition, MER [4, 14]: -0.876%; %-inhibition at 1 µmol/L, PKD1 [5, 15]: 83% |
| C=CC(=O)Nc1cc(Nc2nccc(-c3cn(C)c4ccccc34)n2)c(OC)cc1N(C)CCN(C)C [osimertinib] | -0.355 | 12 | 46 | 10 | 22 | – |
| CC#CC(=O)N1CCC[C@H]1c1nc(-c2ccc(C(=O)Nc3ccccn3)cc2)c2c(N)nccn12 [acalabrutinib] | -12 | 4 | 8 | -3.37 | -9.48 | – |
| COc1cc(N2CCC(N3CCN(C)CC3)CC2)ccc1Nc1ncc(Cl)c(Nc2ccccc2P(C)(C)=O)n1 [brigatinib] | – | – | – | – | – | %-inhibition at 1 µmol/L, EEF2K [1]: 2.53%; %-inhibition, MET [2]: 41%; %-inhibition at 1 µmol/L, DDR1 [3]: 84%; %-inhibition, MER [4]: 89%; %-inhibition at 1 µmol/L, PKD1 [5]: 74% |
| CCCS(=O)(=O)Nc1ccc(F)c(C(=O)c2c[nH]c3ncc(-c4ccc(Cl)cc4)cc23)c1F [vemurafenib] | – | – | – | – | – | %-inhibition at 1 µmol/L, EEF2K [1, 11]: -5%; %-inhibition, MET [2, 13]: 3.67%; %-inhibition at 1 µmol/L, DDR1 [3, 12]: 52%; %-inhibition, MER [4, 14]: 6%; %-inhibition at 1 µmol/L, PKD1 [5, 15]: 43% |
| CCc1cc2c(cc1N1CCC(N3CCOCC3)CC1)C(C)(C)c1[nH]c3cc(C#N)ccc3c1C2=O [alectinib] | -0.237 | 8 | 16 | 56 | 2 | – |
| CC(=O)Nc1cccc(-n2c(=O)n(C3CC3)c(=O)c3c(Nc4ccc(I)cc4F)n(C)c(=O)c(C)c32)c1 [trametinib] | – | – | – | – | – | %-inhibition at 1 µmol/L, EEF2K [1, 11]: -3.43%; %-inhibition, MET [2, 13]: -2.41%; %-inhibition, MER [4, 14]: -6.62%; %-inhibition at 1 µmol/L, PKD1 [5, 15]: 9% |
